Source: ChEMBL document CHEMBL1156714, “Microwave induced synthesis of novel 8,9-dihydro-7H-pyrimido[4,5-b][1,4]diazepines as potential antitumor agents” (2008)
Calls of active or inactive are those of the source. No cut-off for these calls is given here.

What was measured:
NCI-60 = experiment: Growth inhibition of human NCI-60 cells at 1.0 uM; format: functional, cell-based
NCI-H522 = experiment: Growth inhibition of human NCI-H522 cells after 48 hrs by SRB assay; format: functional; conditions: NCI-H522, 48 h; for CC50: read-out: LC50 (the source's name)
HCT-116 = experiment: Growth inhibition of human HCT116 cells after 48 hrs by SRB assay; format: functional; conditions: HCT-116, 48 h; for CC50: read-out: LC50 (the source's name)
LOX IMVI = experiment: Growth inhibition of human LOX IMVI cells after 48 hrs by SRB assay; format: functional
HOP-62 = experiment: Growth inhibition of human HOP62 cells after 48 hrs by SRB assay; format: functional; conditions: HOP-62, 48 h
KM12 = experiment: Growth inhibition of human KM12 cells after 48 hrs by SRB assay; format: functional; conditions: KM12, 48 h
UO-31 = experiment: Growth inhibition of human UO31 cells after 48 hrs by SRB assay; format: functional; conditions: UO-31, 48 h; for CC50: read-out: LC50 (the source's name)
TK-10 = experiment: Growth inhibition of human TK10 cells after 48 hrs by SRB assay; format: functional; conditions: TK-10, 48 h
Hs-578T = experiment: Growth inhibition of human HS578T cells after 48 hrs by SRB assay; format: functional; conditions: for CC50: read-out: LC50 (the source's name)
COLO 205 = experiment: Growth inhibition of human COLO205 cells after 48 hrs by SRB assay; format: functional; conditions: COLO 205, 48 h
RXF 393 [1] = experiment: Growth inhibition of human […] cells after 48 hrs by SRB assay; format: functional; conditions: RXF 393, 48 h
A498 = experiment: Growth inhibition of human A498 cells after 48 hrs by SRB assay; format: functional; conditions: A498, 48 h
MDA-MB-468 = experiment: Growth inhibition of human MDA-MB-468 cells after 48 hrs by SRB assay; format: functional; conditions: MDA-MB-468, 48 h
HCT-15 = experiment: Growth inhibition of human HCT15 cells after 48 hrs by SRB assay; format: functional; conditions: HCT-15, 48 h; for CC50: read-out: LC50 (the source's name)
SNB-75 = experiment: Growth inhibition of human SNB75 cells after 48 hrs by SRB assay; format: functional; conditions: SNB-75, 48 h
A549 = experiment: Growth inhibition of human A549 cells after 48 hrs by SRB assay; format: functional; conditions: A549, 48 h
PC-3 = experiment: Growth inhibition of human PC3 cells after 48 hrs by SRB assay; format: functional; conditions: PC-3, 48 h
RPMI-8226 = experiment: Growth inhibition of human RPMI8226 cells after 48 hrs by SRB assay; format: functional; conditions: RPMI-8226, 48 h; for CC50: read-out: LC50 (the source's name)
MDA-MB-231 = experiment: Growth inhibition of human MDA-MB-231 cells after 48 hrs by SRB assay; format: functional; conditions: MDA-MB-231, 48 h
HT-29 = experiment: Growth inhibition of human HT29 cells after 48 hrs by SRB assay; format: functional; conditions: HT-29, 48 h
NCI-H322M = experiment: Growth inhibition of human NCI-H322M cells after 48 hrs by SRB assay; format: functional
[2] = Growth inhibition of human OVACR3 cells after 48 hrs by SRB assay; format: functional
MOLT-4 = experiment: Growth inhibition of human MOLT4 cells after 48 hrs by SRB assay; format: functional; conditions: MOLT-4, 48 h
HCC 2998 = experiment: Growth inhibition of human HCC2998 cells after 48 hrs by SRB assay; format: functional; conditions: HCC 2998, 48 h
[3] = Growth inhibition of human OVACR5 cells after 48 hrs by SRB assay; format: functional
U-251 = experiment: Growth inhibition of human U251 cells after 48 hrs by SRB assay; format: functional; conditions: U-251, 48 h
ACHN = experiment: Growth inhibition of human ACHN cells after 48 hrs by SRB assay; format: functional
SF-295 = experiment: Growth inhibition of human SF295 cells after 48 hrs by SRB assay; format: functional; conditions: SF-295, 48 h
K562 = experiment: Growth inhibition of human K562 cells after 48 hrs by SRB assay; format: functional; conditions: K562, 48 h
SW-620 = experiment: Growth inhibition of human SW620 cells after 48 hrs by SRB assay; format: functional; conditions: SW-620, 48 h
[4] = Growth inhibition of human HL60(TB) cells after 48 hrs by SRB assay; format: functional, HL-60(TB)
[5] = Growth inhibition of human OVACR4 cells after 48 hrs by SRB assay; format: functional
DU-145 = experiment: Growth inhibition of human DU145 cells after 48 hrs by SRB assay; format: functional; conditions: DU-145, 48 h
MCF7 = experiment: Growth inhibition of human MCF7 cells after 48 hrs by SRB assay; format: functional; conditions: MCF7, 48 h
SF-268 = experiment: Growth inhibition of human SF268 cells after 48 hrs by SRB assay; format: functional; conditions: SF-268, 48 h
NCI/ADR-RES = experiment: Growth inhibition of human NCI/ADR-RES cells after 48 hrs by SRB assay; format: functional
IGROV-1 = experiment: Growth inhibition of human IGROV1 cells after 48 hrs by SRB assay; format: functional; conditions: IGROV-1, 48 h; for CC50: read-out: LC50 (the source's name)
[6] = Growth inhibition of human […] cells after 48 hrs by SRB assay; format: functional
RXF 393 [7] = experiment: Growth inhibition of human RXF393 cells after 48 hrs by SRB assay; format: functional; conditions: RXF 393, 48 h
BT-549 = experiment: Growth inhibition of human BT549 cells after 48 hrs by SRB assay; format: functional; conditions: BT-549, 48 h
SR = experiment: Growth inhibition of human SR cells after 48 hrs by SRB assay; format: functional
[8] = read-out: LC50 (the source's name)

Nc1ncnc2c1N=C(c1ccc([N+](=O)[O-])cc1)CC(c1ccc3c(c1)OCO3)N2 (racemic)
Activity (NCI-60): inactive

Nc1ncnc2c1N=C(c1ccc(Cl)cc1)CC(c1ccc3c(c1)OCO3)N2 (racemic)
Activity (NCI-60): inactive

Nc1ncnc2c1N=C(c1ccc3c(c1)OCO3)CC(c1ccc(Cl)cc1)N2 (racemic)
GI50 (NCI-H522): 2.37 µM
CC50 (NCI-H522): > 100 µM
GI50 (HCT-116): 10.7 µM
CC50 (HCT-116): 47.5 µM
GI50 (LOX IMVI): 10.1 µM
CC50 (LOX IMVI; [8]): > 100 µM
GI50 (HOP-62): 16.6 µM
CC50 (HOP-62; [8]): > 100 µM
GI50 (KM12): 2.03 µM
CC50 (KM12; [8]): > 100 µM
GI50 (UO-31): 7.48 µM
CC50 (UO-31): > 100 µM
GI50 (TK-10): 8.23 µM
CC50 (TK-10; [8]): > 100 µM
GI50 (Hs-578T): 1.07 µM
CC50 (Hs-578T): > 100 µM
GI50 (COLO 205): 15 µM
CC50 (COLO 205; [8]): > 100 µM
GI50 (RXF 393 [1]): 2.51 µM
CC50 (RXF 393 [1]; [8]): 59.3 µM
GI50 (A498): 5.94 µM
LC50 (A498): > 100 µM
GI50 (MDA-MB-468): 10.1 µM
CC50 (MDA-MB-468; [8]): > 100 µM
GI50 (HCT-15): 3.14 µM
CC50 (HCT-15): 55.2 µM
GI50 (SNB-75): 5.22 µM
CC50 (SNB-75; [8]): > 100 µM
GI50 (A549): 11.6 µM
LC50 (A549): 78.3 µM
GI50 (PC-3): 9.06 µM
CC50 (PC-3; [8]): 50.8 µM
GI50 (RPMI-8226): 1.5 µM
CC50 (RPMI-8226): > 100 µM
GI50 (MDA-MB-231): 2.7 µM
CC50 (MDA-MB-231; [8]): 55.6 µM
GI50 (HT-29): 3.81 µM
CC50 (HT-29; [8]): > 100 µM
GI50 (NCI-H322M): 16.9 µM
CC50 (NCI-H322M; [8]): > 100 µM
GI50 [2]: 3.71 µM
LC50 [2]: 83 µM
GI50 (MOLT-4): 5.85 µM
CC50 (MOLT-4; [8]): > 100 µM
GI50 (HCC 2998): 5.88 µM
LC50 (concentration killing 50% of cells) (HCC 2998): > 100 µM
GI50 [3]: 18.3 µM
CC50 [3, 8]: > 100 µM
GI50 (U-251): 6.19 µM
CC50 (U-251; [8]): 78.9 µM
Activity (NCI-60): Active
GI50 (ACHN): 8.25 µM
LC50 (lethal concentration 50%) (ACHN): > 100 µM
GI50 (SF-295): 14.7 µM
LC50 (SF-295): > 100 µM
GI50 (K562): 4.27 µM
LC50 (K562): > 100 µM
GI50 (SW-620): 4.91 µM
CC50 (SW-620; [8]): > 100 µM
GI50 ([4]; Homo sapiens, HL-60, 48 h): 5.37 µM
CC50 ([4]; Homo sapiens, HL-60, 48 h, read-out: LC50 (the source's name)): > 100 µM
GI50 [5]: 18.3 µM
LC50 [5]: > 100 µM
GI50 (DU-145): 16.8 µM
CC50 (DU-145; [8]): 65.9 µM
GI50 (MCF7): 3.61 µM
LC50 (MCF7): > 100 µM
GI50 (SF-268): 8.52 µM
LC50 (50% lethal concentration) (SF-268): > 100 µM
GI50 (NCI/ADR-RES): 5.35 µM
CC50 (NCI/ADR-RES; [8]): > 100 µM
GI50 (IGROV-1): 0.35 µM
CC50 (IGROV-1): 42.8 µM
GI50 [6]: 4.66 µM
CC50 [6, 8]: > 100 µM

COc1ccc(C2=Nc3c(N)ncnc3NC(c3ccc4c(c3)OCO4)C2)cc1 (racemic)
Activity (NCI-60): inactive

Nc1ncnc2c1N=C(c1ccc3c(c1)OCO3)CC(c1ccc([N+](=O)[O-])cc1)N2 (racemic)
GI50 (NCI-H522): 6.78 µM
CC50 (NCI-H522): > 100 µM
GI50 (HCT-116): 18.2 µM
CC50 (HCT-116): > 100 µM
GI50 (UO-31): 18.1 µM
CC50 (UO-31): > 100 µM
GI50 (Hs-578T): 9.18 µM
CC50 (Hs-578T): > 100 µM
GI50 (HCT-15): 9.55 µM
CC50 (HCT-15): > 100 µM
GI50 (RPMI-8226): 0.19 µM
CC50 (RPMI-8226): > 100 µM
GI50 (RXF 393 [7]): 7.19 µM
CC50 (RXF 393 [7]; [8]): > 100 µM
GI50 (BT-549): 1.68 µM
CC50 (BT-549; [8]): > 100 µM
GI50 (SR): 2.37 µM
LC50 (concentration killing 50% of cells) (SR): > 100 µM
Activity (NCI-60): Active
LC100 [4]: >100 µM
GI50 ([4]; Homo sapiens, HL-60, 48 h): 13.1 µM
GI50 (IGROV-1): 0.068 µM
CC50 (IGROV-1): 25.5 µM

COc1ccc(C2CC(c3ccc4c(c3)OCO4)=Nc3c(N)ncnc3N2)cc1 (racemic)
Activity (NCI-60): inactive
